In brackets after ≈: the same amount, converted by molar mass.

Broadly, the IC50 is the point on the concentration scale where inhibition reaches its midpoint. Higher therefore signals a need for much substance.

The subject of assay [1] is thrombocyte aggregation in PRP of rats. In words: Inhibition of collagen-induced thrombocyte aggregation in PRP of rats upon in vivo administration. Conditions: rat, 10 mg/kg oral, 90 minutes after administration, *=statistically significant (p 0.05). How it is done:
(§1) A mixture of 0.8 ml of PRP and 0.1 ml of the active compound solution is preincubated for 10 minutes at 37° C. Thrombocyte aggregation is then determined by the turbidimetric method of Born [J. Physiol. (London) 162, 67 (1962)] in an aggregometer at 37° C. [see generally Therapeutische Berichte, 47, 80-86 (1975)]. An aggregation-initiating agent (0.1 ml) such as collagen or ADP is thus added to the preincubated sample. The change in the optical density in the sample of PRP is recorded over a period of 6 minutes and the percentage inhibition is then calculated from the integrated area or the deflection.
(§2) In carrying out these experiments, the compound is administered orally in a tragacanth suspension. The animals are then bled, 90 minutes (rats) or 2 hours (rabbits), after administration, and the PRP is isolated by centrifuging. After isolating the PRP, the measurement of the aggregation inhibition is conducted in vitro analogously to the process described for Table I, without however any preincubation of the samples. Three parts of the rat PRP are furthermore diluted with 1 part of physiological sodium chloride solution.

Assay [2] has as its system Rat PRP. In words: In vitro ADP-induced thrombocyte aggregation inhibition, rat PRP. The assay is classed as cell-based. Conditions: 10 min preincubation, 37° C. On the procedure:
(§3) In vitro: Blood from healthy human test subjects of both sexes, and blood of rabbits and rats is used. One part of 3.8% strength aqueous sodium citrate solution, as an anticoagulant, is mixed with nine parts of blood. Centrifugation of this blood gives a platelet-rich citrate plasma (PRP); see generally Jurgens/Beller, Klinische Methoden der Blutgerinnungsanalyse, Thieme Verlag, Stuttgart (1959).
as §1
(§4) Table I presents ranges of concentration at which the thrombocyte aggregation is inhibited by a value of 50% utilizing 2-(2-diethylaminoethyl)-4,6-dimethyl-1,2-benzisothiazolin-3-one (as the 1,5-naphthalenedisulfonate hemisalt) [compound A].

For assay [3], the system named is thrombocyte aggregation in PRP of rabbits. As to the kind of experiment: Inhibition of collagen-induced thrombocyte aggregation in PRP of rabbits upon in vivo administration. Conditions: rabbit, 30 mg/kg oral, 2 hours after administration, *=statistically significant (p 0.05). How it is done: as §1, §2
Assay [4] has as its system Rabbit PRP. In words: In vitro ADP-induced thrombocyte aggregation inhibition, rabbit PRP. As to conditions: Oryctolagus cuniculus, 10 min preincubation, 37° C. The assay is classed as cell-based. How it is done:
as §3, §1, §4

The test system of assay [5] is thrombus formation in left carotid artery of a rat. As to the kind of experiment: Inhibition of thrombus formation in vivo (rat carotid artery). Conditions: 30 mg/kg oral, immediately before the procedure, thrombus isolated 4 hours later. How it is done:
In this experiment, the left carotid artery of a rat is exposed and cooled to minus 15° C. to stimulate thrombus formation. At the same time, the blood flow is reduced by means of a silver clip. The thrombus is isolated from the artery 4 hours later and is weighted. The table indicates the percentage reduction in weight of the thrombus when the test compound is administered immediately before the procedure.

Assay [6] has as its system thrombocyte aggregation in PRP of rats. As to the kind of experiment: Inhibition of ADP-induced thrombocyte aggregation in PRP of rats upon in vivo administration. As to conditions: rat, 30 mg/kg oral, 90 minutes after administration, *=statistically significant (p 0.05). How it is done: as §1, §2
Assay [7] has as its system Rabbit PRP. As to the kind of experiment: In vitro collagen-induced thrombocyte aggregation inhibition, rabbit PRP. The assay is classed as cell-based. Conditions: Oryctolagus cuniculus, 10 min preincubation, 37° C. On the procedure: as §3, §1, §4
Assay [8] has as its system thrombocyte aggregation in PRP of rabbits. As to the kind of experiment: Inhibition of ADP-induced thrombocyte aggregation in PRP of rabbits upon in vivo administration. Conditions: rabbit, 30 mg/kg oral, 2 hours after administration, *=statistically significant (p 0.05). On the procedure:
as §1, §2

Assay [9] relates to Human PRP. As to the kind of experiment: In vitro ADP-induced thrombocyte aggregation inhibition, human PRP. The assay is classed as cell-based. Conditions: 10 min preincubation, 37° C. On the procedure:
as §3, §1, §4

The subject of assay [10] is ADP-induced aggregation. As to the kind of experiment: ADP-induced aggregation in vitro (summary statement). The assay is classed as cell-based. Conditions: relative to the compounds according to the invention. On the procedure: as §3, §1
Assay [11] relates to ADP-induced aggregation. In words: Activity in vivo at the tested doses (summary statement). On the procedure:
as §2

For `CCN(CC)CCn1sc2cc(C)cc(C)c2c1=O` [Compound A, 2-(2-diethylaminoethyl)-4,6-dimethyl-1,2-benzisothiazolin-3-one], the “Percent inhibition (1) (integrated area)” value was determined as 72% in assay [1], 74% in [3], 45% in [6] and 33% in [8]. Moreover, the “Percent inhibition (2) (amplitude)” value is recorded as 71% in assay [1], 72% in assay [3], 77% in [6] and 54% in assay [8]. For the same compound, the IC50 in assay [2], in assay [4] and in assay [7] was 1 µg/mL (≈ 3.59 µM) throughout. For the same compound, the “Percentage inhibition (percentage reduction in weight of the thrombus)” value in assay [5] came out at 48 Percentage.

For `O=C1C(CC[S+]([O-])c2ccccc2)C(=O)N(c2ccccc2)N1c1ccccc1` (centres unmarked) [Sulfinepyrazone], the “Percent inhibition (1) (integrated area)” value in assay [1] was -3%. Also, the “Percent inhibition (2) (amplitude)” value in [1] is recorded as 0%; in assay [6], -5%. Besides, the IC50 in assay [9] is > 100 µg/mL; in assay [2], > 10 µg/mL. Further, the activity in vitro entry in assay [10] is recorded as “substantially less active in vitro”. The activity in vivo entry in assay [11] was “inactive at the tested doses in vivo”.

In the case of `OCCN(CCO)c1nc(N2CCCCC2)c2nc(N(CCO)CCO)nc(N3CCCCC3)c2n1` [Dipyridamol], the “Percent inhibition (1) (integrated area)” value in [1] is recorded as 5%. The “Percent inhibition (2) (amplitude)” value in assay [1] was 7%; in assay [6] it was -23%. Further, the concentration for half-maximal inhibition (IC50) was > 100 µg/mL in [9] and > 10 µg/mL in assay [2]. Moreover, in [10], the activity in vitro result is listed as “substantially less active in vitro”. The activity in vivo entry in assay [11] was “inactive at the tested doses in vivo”. Also, the “Percentage inhibition (percentage reduction in weight of the thrombus)” value in [5] turned out to be 17 Percentage.

`CC(=O)Oc1ccccc1C(=O)O` [Acetylsalicylic acid]: the “Percent inhibition (1) (integrated area)” value in [1] is reported as 31%; in assay [3], 63%; in [6], 15%; in assay [8] it was 15%. The “Percent inhibition (2) (amplitude)” value was 35% in [1], 58% in assay [3], 27% in [6] and 6% in [8]. The IC50 is > 100 µg/mL in assay [9], > 10 µg/mL in assay [2] and > 10 µg/mL in assay [4].

Source of the values: patent publication US4156729A, “1,2-Benzisothiazolin-3-ones” (Bayer Aktiengesellschaft, priority 1976, dated 1979).
